One series concerns the target Cholinesterase (Homo sapiens, UniProt P06276).
The target in series [1] is T1, Acetylcholinesterase (Homo sapiens, UniProt P22303).
Description: Inhibition of human recombinant AChE using acetylthiocholine as substrate preincubated for 5 mins followed by substrate addition measured every 2 mins by Ellman's method
Series [2] has as its system Liver microsome. Kind of series: Retention time of the compound in human liver microsomes by LC-MS/MS analysis. The class given is ADME.
The test system of series [3] is HepG2. The experiment in a line: Hepatotoxicity in human HepG2 cells assessed as cell viability at 2 uM after 24 hrs by MTT assay. Conditions: hepg2, 24 h. The series is classed as toxicity, cell-based.
A further series can be described thus: in vitro. The note with it: human, HepG2 cells.
The nature of series [4]: Metabolic stability in human liver microsomes assessed as compound remaining at 50 ug/ml after 1 hr by LC-MS/MS analysis. Conditions: read-out: Stability. The class given is ADME.
Series [5] deals with Liver microsome. Kind of series: Drug metabolism in human liver microsomes assessed as decrease in 8-(6-chloro-1,2,3,4-tetrahydroacridin-9-ylamino)octanoic acid AUC after 1 hr by extracted ion chromatogram analysis. The class given is ADME.
The nature of series [6]: Metabolic stability in human liver microsomes assessed as compound remaining at 1 ug/ml after 1 hr by LC-MS/MS analysis. The series is classed as ADME. Conditions: read-out: Stability.
Series [7] in a line: Permeability of the compound at 50 to 100 uM after 18 hrs by PAMPA. The class given is physicochemical. Conditions: read-out: permeability.
Series [8] deals with T1, Acetylcholinesterase. Conditions: 100 to 562 nM.
Series [9] addresses T1, Acetylcholinesterase. Kind of series: Competitive inhibition of human recombinant AChE using acetylthiocholine as substrate preincubated for 5 mins followed by substrate addition measured every 2 mins by Lineweaver-Burk plot analysis.
Series [10] relates to HepG2. The experiment in a line: Hepatotoxicity in human HepG2 cells assessed as cell viability at 0.5 uM after 24 hrs by MTT assay. Conditions: hepg2, 24 h. The class given is toxicity, cell-based.
A short description of series [11]: Acute toxicity in im dosed albino Wistar rat assessed as mortality measured within 48 hrs. The class given is organism-based. The note with it: in vivo.
A short description of series [12]: Metabolic stability in human liver microsomes assessed as compound remaining at 20 ug/ml after 1 hr by LC-MS/MS analysis. The class given is ADME. Conditions: read-out: Stability.
Series [13] deals with HepG2. The experiment in a line: Hepatotoxicity in human HepG2 cells assessed as cell viability at 512 uM after 24 hrs by MTT assay. The series is classed as toxicity, cell-based. The note with it: hepg2, 24 h.

Activity calls are given as the source filed them. No cut-off for these calls is given here.

T1 sequence (P22303 whole entry): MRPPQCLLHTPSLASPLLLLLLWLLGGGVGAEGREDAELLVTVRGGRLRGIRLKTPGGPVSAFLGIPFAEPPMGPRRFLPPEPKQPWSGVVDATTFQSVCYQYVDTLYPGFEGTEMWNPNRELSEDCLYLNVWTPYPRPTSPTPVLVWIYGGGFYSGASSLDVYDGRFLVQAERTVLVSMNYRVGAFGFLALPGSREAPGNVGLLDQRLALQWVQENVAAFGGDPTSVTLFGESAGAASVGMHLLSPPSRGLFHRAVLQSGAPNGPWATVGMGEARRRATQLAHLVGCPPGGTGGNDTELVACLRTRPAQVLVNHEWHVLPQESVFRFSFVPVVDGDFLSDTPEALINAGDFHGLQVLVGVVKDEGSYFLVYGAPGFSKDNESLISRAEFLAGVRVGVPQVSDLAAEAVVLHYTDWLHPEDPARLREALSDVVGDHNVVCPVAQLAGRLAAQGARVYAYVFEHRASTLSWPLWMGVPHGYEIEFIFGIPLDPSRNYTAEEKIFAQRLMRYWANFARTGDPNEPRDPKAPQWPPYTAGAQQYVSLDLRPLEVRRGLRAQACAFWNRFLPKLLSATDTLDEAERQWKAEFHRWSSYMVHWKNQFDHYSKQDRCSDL
Sequence of Cholinesterase (P06276 whole entry): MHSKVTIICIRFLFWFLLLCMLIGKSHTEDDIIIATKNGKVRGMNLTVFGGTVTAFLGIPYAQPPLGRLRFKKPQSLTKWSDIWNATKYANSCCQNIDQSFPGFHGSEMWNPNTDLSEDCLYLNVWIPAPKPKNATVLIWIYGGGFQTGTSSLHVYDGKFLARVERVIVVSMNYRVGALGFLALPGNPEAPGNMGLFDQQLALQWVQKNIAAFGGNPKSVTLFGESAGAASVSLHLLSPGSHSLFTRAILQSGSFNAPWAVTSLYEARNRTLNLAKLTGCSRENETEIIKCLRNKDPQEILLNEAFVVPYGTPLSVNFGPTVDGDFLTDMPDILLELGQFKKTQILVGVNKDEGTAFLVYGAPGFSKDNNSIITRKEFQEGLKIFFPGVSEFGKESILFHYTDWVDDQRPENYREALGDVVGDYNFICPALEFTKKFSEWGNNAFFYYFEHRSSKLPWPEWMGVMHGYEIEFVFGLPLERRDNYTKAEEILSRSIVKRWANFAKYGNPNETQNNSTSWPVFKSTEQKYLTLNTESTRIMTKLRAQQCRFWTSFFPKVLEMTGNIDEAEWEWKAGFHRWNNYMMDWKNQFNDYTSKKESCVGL
Description for in vitro: Hepatotoxicity in human HepG2 cells assessed as cell viability after 24 hrs by MTT assay

With `Cc1c(C)c2c(c(C)c1O)CCC(C)(C(=O)NCCCCCCCCNc1c3c(nc4ccccc14)CCCC3)O2` (stereo not given), the EC50 is 66.5 µM. On Cholinesterase, the IC50 came out at 0.16 µM. Further, on Acetylcholinesterase [1], half-maximal inhibition (IC50) required 0.69 µM.

The molecule `CC1=C(C)C(=O)C(CCC(C)(O)C(=O)NCCCCCCCCNc2c3c(nc4cc(Cl)ccc24)CCCC3)=C(C)C1=O` (stereo not given) showed a Retention_time in the series on Liver microsome [2] of 7.35 min.

`Cc1c(C)c2c(c(C)c1O)CCC(C)(C(=O)NCCCCNc1c3c(nc4ccccc14)CCCC3)O2` (stereo not given) came in with an EC50 of more than 100 µM. Moreover, on Cholinesterase, 0.08 µM corresponded to half-maximal inhibition (IC50). Half-maximal inhibition at Acetylcholinesterase [1] (IC50) was put at 0.95 µM.

`Cc1c(C)c2c(c(C)c1O)CCC(C)(C(=O)NCCCCCCCNc1c3c(nc4ccccc14)CCCC3)O2` (stereo not given) displayed an EC50 of more than 100 µM. On Cholinesterase, this molecule yielded an IC50 of 0.13 µM. On Acetylcholinesterase [1], this molecule displayed an IC50 of 0.69 µM.

`COc1ccc2nc3c(c(NCCCCCCNC(=O)C4(C)CCc5c(C)c(O)c(C)c(C)c5O4)c2c1)CCCC3` (stereo not given): it took 58.8 µM to reach a half-maximal effect (EC50). Besides, the midpoint of inhibition on Cholinesterase, the IC50, lay at 0.69 µM. In addition, half-maximal inhibition against Acetylcholinesterase [1] (IC50) was put at 6.61 µM.

`OCCCCCCCCNc1c2c(nc3cc(Cl)ccc13)CCCC2` displayed a Retention_time with Liver microsome [2] of 6.56 min.

As to `COc1ccc2nc3c(c(NCCCNC(=O)C4(C)CCc5c(C)c(O)c(C)c(C)c5O4)c2c1)CCCC3` (stereo not given), the EC50 is more than 100 µM. Further, the IC50 against Cholinesterase stood at 0.62 µM. Also, in the series with HepG2 [3], the Activity result was “Non-toxic”. The molecule also came in with an IC50 against Acetylcholinesterase [1] of 1.54 µM.

The molecule `COc1ccc2nc3c(c(N)c2c1)CCCC3` showed an EC50 of more than 100 µM. The molecule also had an IC50 at 24 h in “in vitro” of 11.5 µM.

Consider `Cc1c(C)c2c(c(C)c1O)CCC(C)(C(=O)NCCCCCCCCNc1c3c(nc4cc(Cl)ccc14)CCCC3)O2` (stereo not given), for which the EC50 is 44.1 µM. This molecule also returned a Retention_time in the series with Liver microsome [2] of 7.52 min. In addition, the remaining at 1 h, 50 ug/ml in series [4] is 85.4%. On Cholinesterase, this molecule registered an IC50 of 0.54 µM. In addition, the Drug metabolism in the series with Liver microsome [5] is recorded as 3.1%. Moreover, the remaining at 1 h, 1 ug/ml in [6] came to 58.2%. The molecule further displayed an IC50 at Acetylcholinesterase [1] of 0.08 µM. In addition, in series [7], the Papp at 18 h, 100 µM amounted to 5 ×10⁻⁶ cm/s. Moreover, the inhibition result on Acetylcholinesterase [8] was “Active”. Moreover, the Ki at Acetylcholinesterase [9] worked out at 0.0495 µM. Further, the Activity entry in the series with HepG2 [10] is given as “Non-toxic”. Moreover, in [11], the LD50 at 48 h was more than 500 mg/kg. Besides, the remaining at 1 h, 20 ug/ml in series [12] is 85.5%.

As for `Cc1c(C)c2c(c(C)c1O)CCC(C)(C(=O)NCCCCCNc1c3c(nc4cc(Cl)ccc14)CCCC3)O2` (stereo not given), the EC50 was determined as 49.8 µM. The IC50 at Cholinesterase came out at 0.13 µM. On Acetylcholinesterase [1], this molecule showed an IC50 of 0.12 µM.

In the case of `COc1ccc2nc3c(c(NCCCCCCCNC(=O)C4(C)CCc5c(C)c(O)c(C)c(C)c5O4)c2c1)CCCC3` (stereo not given), the EC50 turned out to be 59 µM. The molecule further came in with an IC50 at Cholinesterase of 0.7 µM. Also, the IC50 against Acetylcholinesterase [1] worked out at 6.72 µM.

For the molecule `Cc1c(C)c2c(c(C)c1O)CCC(C)(C(=O)NCCCCCCCNc1c3c(nc4cc(Cl)ccc14)CCCC3)O2` (stereo not given), it took 44.2 µM to reach a half-maximal effect (EC50). Further, the IC50 against Cholinesterase came out at 0.7 µM. Moreover, the IC50 against Acetylcholinesterase [1] was found to be 0.08 µM. Moreover, the Activity entry with HepG2 [10] is recorded as “Non-toxic”.

In the case of `Cc1c(C)c2c(c(C)c1O)CCC(C)(C(=O)NCCCCNc1c3c(nc4cc(Cl)ccc14)CCCC3)O2` (stereo not given), the EC50 was 50.8 µM. At Cholinesterase, this molecule had an IC50 of 0.09 µM. Further, the IC50 on Acetylcholinesterase [1] was determined as 0.15 µM.

In turn, `Cc1c(C)c2c(c(C)c1O)CCC(C)(C(=O)NCCCNc1c3c(nc4cc(Cl)ccc14)CCCC3)O2` (stereo not given) had a half-maximal effective concentration (EC50) of 48.8 µM. The molecule further gave an IC50 at Cholinesterase of 0.77 µM. The molecule also yielded a 50% inhibitory concentration (IC50) against Acetylcholinesterase [1] of 0.08 µM.

In turn, `Cc1c(C)c2c(c(C)c1O)CCC(C)(C(=O)NCCNc1c3c(nc4ccccc14)CCCC3)O2` (stereo not given) returned an EC50 of more than 100 µM. Also, 0.06 µM corresponded to half-maximal inhibition against Cholinesterase (IC50). In addition, 6.97 µM corresponded to half-maximal inhibition against Acetylcholinesterase [1] (IC50). The Papp at 18 h, 100 µM in series [7] was determined as 4.4 ×10⁻⁶ cm/s.

`Cc1c(C)c2c(c(C)c1O)CCC(C)(C(=O)NCCNc1c3c(nc4cc(Cl)ccc14)CCCC3)O2` (stereo not given) returned an EC50 of 67.8 µM. For the same molecule, the IC50 against Cholinesterase is 0.02 µM. For the same molecule, the IC50 at Acetylcholinesterase [1] was found to be 0.21 µM.

Molecule `O=C(O)CCCCCCCNc1c2c(nc3cc(Cl)ccc13)CCCC2` had a Retention_time with Liver microsome [2] of 6.52 min.

`Cc1c(C)c2c(c(C)c1O)CCC(C)(C(=O)NCCCNc1c3c(nc4ccccc14)CCCC3)O2` (stereo not given) yielded an EC50 of 51.3 µM. Besides, on Cholinesterase, the IC50 is 0.08 µM. Further, the IC50 at 24 h in the series “in vitro” is 13.2 µM. For the same molecule, on Acetylcholinesterase [1], the IC50 stood at 0.26 µM.

The molecule `CC1=C(C)C(=O)C(CCC(C)(O)C(=O)NC(O)CCCCCCCNc2c3c(nc4cc(Cl)ccc24)CCCC3)=C(C)C1=O` (stereo not given) displayed a Retention_time with Liver microsome [2] of 7.1 min.

As to `COc1ccc2nc3c(c(NCCCCCCCCNC(=O)C4(C)CCc5c(C)c(O)c(C)c(C)c5O4)c2c1)CCCC3` (stereo not given), the EC50 is more than 100 µM. The same molecule displayed an IC50 against Cholinesterase of 1.53 µM. In addition, in the series “in vitro”, it took 0.92 µM to reach half-maximal inhibition (IC50 at 24 h). This molecule gave an IC50 against Acetylcholinesterase [1] of 3.48 µM.

In turn, `Cc1c(C)c2c(c(C)c1O)CCC(C)(C(=O)O)O2` (stereo not given) [TROLOX] registered an EC50 of 16.2 µM. This molecule registered an IC50 on Cholinesterase of more than 1000 µM. The Activity result in the series with HepG2 [13] was “Non-toxic”. This molecule came in with an IC50 at Acetylcholinesterase [1] of 186 µM.

`COc1ccc2nc3c(c(NCCCCCNC(=O)C4(C)CCc5c(C)c(O)c(C)c(C)c5O4)c2c1)CCCC3` (stereo not given): the concentration for a half-maximal effect (EC50) amounted to 62.7 µM. On Cholinesterase, this molecule returned a half-maximal inhibitory concentration (IC50) of 0.4 µM. Also, on Acetylcholinesterase [1], the 50% inhibitory concentration (IC50) is 13.3 µM.

`COc1ccc2nc3c(c(NCCCCNC(=O)C4(C)CCc5c(C)c(O)c(C)c(C)c5O4)c2c1)CCCC3` (stereo not given) showed an EC50 of more than 100 µM. At Cholinesterase, the 50% inhibitory concentration (IC50) was determined as 0.29 µM. On Acetylcholinesterase [1], this molecule gave an IC50 of 7.21 µM.

Take `Cc1c(C)c2c(c(C)c1O)CCC(C)(C(=O)NCCCCCCNc1c3c(nc4ccccc14)CCCC3)O2` (stereo not given): it took 61.8 µM to reach a half-maximal effect (EC50). For the same molecule, the IC50 at Cholinesterase worked out at 0.19 µM. This molecule also registered an IC50 at 24 h in the series “in vitro” of 2 µM. Besides, 0.36 µM corresponded to half-maximal inhibition on Acetylcholinesterase [1] (IC50).

As to `Cc1c(C)c2c(c(C)c1O)CCC(C)(C(=O)NCCCCCNc1c3c(nc4ccccc14)CCCC3)O2` (stereo not given), the EC50 was found to be 65.6 µM. On Cholinesterase, this molecule had an IC50 of 0.56 µM. In addition, the midpoint of inhibition in “in vitro”, the IC50 at 24 h, lay at 8.7 µM. Also, the IC50 at Acetylcholinesterase [1] is 0.62 µM.

Take `COc1ccc2nc3c(c(NCCNC(=O)C4(C)CCc5c(C)c(O)c(C)c(C)c5O4)c2c1)CCCC3` (stereo not given): the concentration for a half-maximal effect (EC50) is 95.9 µM. Also, the IC50 on Cholinesterase stood at 1.3 µM. In the series “in vitro”, this molecule had an IC50 at 24 h of 4.9 µM. For the same molecule, the midpoint of inhibition against Acetylcholinesterase [1], the IC50, lay at 4.36 µM.

Regarding `Nc1c2c(nc3cc(Cl)ccc13)CCCC2`, the EC50 is more than 100 µM. Also, the IC50 at 24 h in the series “in vitro” turned out to be 7.13 µM. The LD50 at 48 h in series [11] stood at 7.5 mg/kg.

On to `Cc1c(C)c2c(c(C)c1O)CCC(C)(C(=O)NCCCCCCNc1c3c(nc4cc(Cl)ccc14)CCCC3)O2` (stereo not given), for which the concentration for a half-maximal effect (EC50) was 48.8 µM. The molecule further had an IC50 on Cholinesterase of 0.4 µM. In addition, the IC50 at 24 h in the series “in vitro” came to 0.7 µM. In addition, the IC50 against Acetylcholinesterase [1] turned out to be 0.1 µM.

For the origin of these results see ChEMBL document CHEMBL3632576, “Tacrine-Trolox Hybrids: A Novel Class of Centrally Active, Nonhepatotoxic Multi-Target-Directed Ligands Exerting Anticholinesterase and Antioxidant Activities with Low In Vivo Toxicity” (J Med Chem, 2015).
